Assay results: patent US20140142140A1, “PHARMACEUTICAL COMPOSITION FOR NEUROLOGICAL DISORDERS” (priority 2011, published 2014)
Like-named read-outs stand apart in the source and are kept apart here.

Assays:
[1] = system: patients with PTSD; conditions: cited from earlier work
[2] = system: patients with autism / ASD / communication disorder; assay: Case reports, Autism and other Pervasive Development Disorders (Example 6); assay type: in vivo, human; conditions: for communication, family relationships, behavioural disturbance: 1 mg daily increased to 3 mg in divided doses daily
Description: Patient 6A: Adult, diagnosed in childhood with autism and ADHD. A long history of behavioural disturbance with frequent episodes of violence despite treatment with high-dose antipsychotic medication. […] The high-dose antipsychotic medication has been reduced without any associated loss of recent benefit. […] A history of behavioural disturbance and educational impairment. […] Patient 6C was an adult, diagnosed in childhood with autism and ADHD with a history of behavioural disturbance and educational impairment. […] Patient 6D: Adult, diagnosed in childhood with autism, ADHD and antisocial personality traits. […] Patient C's conversation became more appropriate and consistent together with reported improvements in significant relationships. […] Patient 6E was an adult, diagnosed with communication disorder and major depression. […] Patient 6F was an adult with ASD. […] The patient's conversation became more appropriate and consistent and improvements in significant relationships were reported. A reduction in the reliance on alcohol to alleviate anxiety in social situations was observed. […] Sodium valproate was withdrawn and improvement was noted. […] Patient 6G was as adult, diagnosed in childhood with ASD. […] Sodium valproate was withdrawn. […] This has also been associated with improvements in reading and verbal understanding. These benefits have been sustained in some situations for three years. Although difficult to be objective, there seems to be good evidence of ongoing improvement. […] Improvements in coordination, in fine and gross motor control have been reported and improvement in gait which frequently is a significant issue for individuals with autistic disorders.

[3] = cited from earlier work
[4] = system: patients with closed head injury; assay: Case reports, Acquired Brain Injury (Example 4); assay type: in vivo, human
[5] = Patient 4A, test dose less than 3 mg via buccal mucosa
[6] = Patient 4B, test sublingual dose 1 mg

Compound: O=C1NC(=O)C(c2ccccc2)(c2ccccc2)N1 [phenyloin, 5,5-diphenylhydantoin]
- increase in right brain volume ([1]; 300 mg per day in three doses, up to 400 mg/day, p<0.05): 6%
- improvements in memory and cognition ([1]; 300 to 400 mg/day): did not achieve statistical significance
- social interaction and conversation ([2]; Patient 6A, autism and ADHD, single test dose sublingual 1 mg): immediate improvement noted in their ability to socially interact and sustain limited conversation
- social interaction, home and day respite centre ([2]; Patient 6A, 4 mg sustained release daily): improvement was consistently noted
- behaviour after withdrawal ([2]; Patient 6A, withdrawal and recommencement): return of the behavioural disturbance which abated on recommencement
- communication, family relationships, behavioural disturbance ([2]; Patient 6B): sustained improvement in communication and family relationships together with a reduction in behavioural disturbance
- improvements at a higher dose or withdrawn ([2]; Patient 6B): Improvements were lost
- communication, family relationships, behavioural disturbance ([2]; Patient 6C): sustained improvement in communication and family relationships together with a reduction in behavioural disturbance
- improvements at a higher dose or withdrawn ([2]; Patient 6C): improvements were lost
- behaviour, verbal and non-verbal communication ([2]; Patient 6D, 2 mg daily): Significant improvement in behaviour, verbal and non-verbal communication
- benefit of increased dose ([2]; Patient 6D, 4 mg): No additional benefit
- non-verbal and verbal communication ([2]; autistic spectrum and social communication disorders, Ultra low dose, frequently below 5 mg): frequent instant improvement in both their non-verbal and verbal communication
- duration of sustained benefits in some situations ([2]; low dose): three years
- symptoms of Social Communication Disorder ([2]; ultra low dose): significant improvements in many patients
- half-life ([3]; high doses): prolonged
- metabolism ([3]; in vivo): almost completely metabolized in the liver
- time for plasma concentration to reach steady-state level ([3]; in vivo): 1-2 weeks
- half-life ([3]; low doses): less than 20 h
- clinical response to increased dose, following day ([4]; Patient 4A, dose increased, second day): no dramatic improvement
- functioning over five days after cessation ([4]; Patient 4A, phenyloin ceased, followed by deterioration to pre-phenyloin functioning): gradual improvement in their functioning
- developmental Eye Movement Test and Stroop test ([4]; Patient 4A, repeated sublingual dose): consistent with the improved cognitive functioning
- clinical response to repeated dose, third day ([4]; Patient 4A, same increased dose, third day): noticeable deterioration in their ability to focus and organize their thinking
- ability to focus [4, 5]: dramatic and unexpected improvement in their ability to focus
- motor tics and vocalisations [4, 5]: repetitive chanting and hand movements ceased
- reading ([4]; Patient 4B, 3 mg): began reading for the first time in 10 years
- ability to organise and undertake tasks ([4]; Patient 4B, initial dose of 3 mg): unexpected and dramatic improvement in the ability to organise and undertake tasks
- effort required for communication [4, 6]: reduction in the effort required for communication
- subjective vision [4, 6]: enhanced clarity of vision
- irritability and sense of being overwhelmed after a further dose ([4]; Patients 4A and 4B, further dose): temporary relief
- duration of sustained improvements ([4]; both cases (Patients 4A and 4B)): over 12 months
